According to patent US9670162B2, “Mitochondrial aldehyde dehyrogenase-2 modulators and methods of use thereof” (The Board of Trustees of the Leland Stanford Junior …, priority 2013, dated 2017):

Legend:
[1] = system: mice treated with PO 5 g/kg of EtOH; assay: Mouse pharmacodynamics (PD) study after EtOH; format: in vivo
Method: Mice (male C57BL6 (8 to 9 weeks, 20-22 g)) were treated with PO […] of EtOH. Then PO 40 mg/kg or 60 mg/kg compound 161 were administered to the mice. […] FIG. 6 is a graph showing the behavior of mice at 120 min, 180 min, and 300 min. FIG. 7 is a graph showing the alcohol concentration (mg/dL) at 75 min and 180 min.
A PD study of IV administration of compound 161 was also carried out. The mice were treated with PO 5 g/kg of alcohol and were then treated with 10 mg/kg of compound 161 administered through IV. […] FIG. 8 is a graph showing the blood alcohol concentration (mg/dL) versus time (hr).

NHPLM stability T1/2 = format: in vitro ADME; settings: monkey, liver microsomes
Method: (§1) In vitro ADMET of compounds of the present disclosure was carried out according to known methods in the art. Below are data for certain compounds of the present disclosure.

CYP3A4 = CYP3A4 (Homo sapiens, UniProt P08684); assay: Cyp inhibition 3A4; format: in vitro ADME; design: inhibition: dose or concentration left out as unconfirmed
Method: as §1

[2] = Plasma protein binding (PPB), rat; format: in vitro ADME
Method: as §1

[3] = target: T1, human ALDH2*2 recombinant mutant enzyme (E487K) (Homo sapiens, UniProt P05091, E504K); assay: ALDH2 enzymatic assay (NADH at 340 nm), recombinant mutant enzyme; format: biochemical; design: key: −: no activation or inhibition; +: activation less than control 1; ++: activation similar to control 1, within 10%; +++: activation more than control 1 and less than control (compound 161); ++++: activation similar to compound 161, within 10%; settings: activation relative to benchmarks control 1 and compound 161
T1 construct: His-tag (pTrcHis vector) (N); made in house; host or cells: E. coli BL21
T1 sequence (P05091 18-517 E504K): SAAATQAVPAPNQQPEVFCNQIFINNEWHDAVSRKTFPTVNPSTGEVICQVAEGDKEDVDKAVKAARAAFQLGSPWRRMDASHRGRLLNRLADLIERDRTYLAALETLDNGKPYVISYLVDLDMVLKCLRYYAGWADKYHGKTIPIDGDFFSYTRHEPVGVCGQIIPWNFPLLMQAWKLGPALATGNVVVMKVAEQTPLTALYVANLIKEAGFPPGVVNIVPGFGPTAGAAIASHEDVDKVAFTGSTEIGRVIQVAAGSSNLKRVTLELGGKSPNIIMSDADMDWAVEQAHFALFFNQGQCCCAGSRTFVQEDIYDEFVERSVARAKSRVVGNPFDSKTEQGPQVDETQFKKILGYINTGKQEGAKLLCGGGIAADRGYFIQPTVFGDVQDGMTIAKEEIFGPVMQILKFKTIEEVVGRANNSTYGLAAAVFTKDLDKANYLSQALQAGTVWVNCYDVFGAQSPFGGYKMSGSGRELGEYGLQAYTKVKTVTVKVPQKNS

HLM stability T1/2 = format: in vitro ADME; settings: human, liver microsomes; read-out: metabolism (HLM, t1/2)
Method: as §1

LogD (pH 7.4) = format: physicochemical
Method: as §1

[4] = Plasma protein binding (PPB), human; format: in vitro ADME
Method: as §1

RLM stability T1/2 = format: in vitro ADME; settings: rat, liver microsomes
Method: as §1

[5] = system: unpurified human liver homogenates (liver mitochondria fraction), ALDH; assay: ALDH activity in human liver biopsy samples; format: biochemical; settings: 20 μM, acetaldehyde substrate, 750 μg protein
Method: The study of compounds of the present disclosure on unpurified human liver homogenates was carried out according to methods known in the art. Briefly, 750 μg of the total unpurified protein from the liver mitochondria fraction was used in this assay. The kinetic increase of absorbance at λ340 nm was monitored for 15 minutes for NADH. For the first 3 minutes, the assay was carried in the absence of the substrate or AD-363 to establish the base line. As expected, no NADH production was detected. Substrate acetaldehyde was then added at the 3-min time point and the reaction monitored for the next 6 min to record the catalytic rate in the absence of an activator. Compound 161 (20 μM), was then added at the 9-min time point and the reaction monitored for the next 6 min to record the increase in catalytic rate.

Plasma stability, human = format: in vitro ADME
Method: as §1

CYP2C9 = CYP2C9 (Homo sapiens, UniProt P11712); assay: Cyp inhibition 2C9; format: in vitro ADME
Method: as §1

CYP3A4, sequence (P08684 whole entry): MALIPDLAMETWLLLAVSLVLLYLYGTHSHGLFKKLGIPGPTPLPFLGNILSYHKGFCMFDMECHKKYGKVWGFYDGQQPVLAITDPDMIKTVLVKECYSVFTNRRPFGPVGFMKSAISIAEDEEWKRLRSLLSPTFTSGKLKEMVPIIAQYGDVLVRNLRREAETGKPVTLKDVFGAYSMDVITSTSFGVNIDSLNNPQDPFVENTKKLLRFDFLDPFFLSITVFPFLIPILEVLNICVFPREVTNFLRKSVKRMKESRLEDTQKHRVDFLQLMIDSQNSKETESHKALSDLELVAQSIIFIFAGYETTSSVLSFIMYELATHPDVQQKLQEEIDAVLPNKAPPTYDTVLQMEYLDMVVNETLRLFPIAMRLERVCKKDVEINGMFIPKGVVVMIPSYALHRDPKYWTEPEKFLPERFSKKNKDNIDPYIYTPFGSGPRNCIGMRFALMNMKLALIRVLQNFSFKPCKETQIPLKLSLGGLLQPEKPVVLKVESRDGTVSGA
CYP2C9, sequence (P11712 whole entry): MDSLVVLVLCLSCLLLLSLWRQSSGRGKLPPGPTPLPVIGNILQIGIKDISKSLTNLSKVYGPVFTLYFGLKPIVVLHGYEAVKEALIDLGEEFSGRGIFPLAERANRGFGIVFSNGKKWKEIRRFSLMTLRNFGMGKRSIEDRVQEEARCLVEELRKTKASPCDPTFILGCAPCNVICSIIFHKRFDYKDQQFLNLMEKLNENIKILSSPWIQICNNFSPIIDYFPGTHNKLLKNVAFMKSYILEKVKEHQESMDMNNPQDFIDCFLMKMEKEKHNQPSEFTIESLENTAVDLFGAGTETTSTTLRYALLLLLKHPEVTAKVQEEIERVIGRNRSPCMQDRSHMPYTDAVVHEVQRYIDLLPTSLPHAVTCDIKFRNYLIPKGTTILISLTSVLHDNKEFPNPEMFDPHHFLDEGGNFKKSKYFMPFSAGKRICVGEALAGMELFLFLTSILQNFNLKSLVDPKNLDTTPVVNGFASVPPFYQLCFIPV

half-life (NHPLM stability T1/2): 2.54 min
inhibition (CYP3A4): 15%
inhibition at 10 µM (CYP3A4; 10 μM): 14.9%
fraction unbound [2]: 0.039
ALDH2 (mutant) [3]: ++++
half-life (HLM stability T1/2): 12.4 min
logD (LogD (pH 7.4)): 3
fraction unbound [4]: 0.007
half-life (RLM stability T1/2): 0.974 min
increase of human liver enzyme's catalytic rate [5]: 2.38 folds
plasma stability (human, 5 h) (Plasma stability, human; 5 h): 100%
Plasma stability Human (Plasma stability, human; plasma): 100%
inhibition at 10 µM (CYP2C9): 5.7%
SMILES: COc1ccc(CNC(=O)c2c(Cl)ccnc2OCC2CC2)cc1F [Compound 161]
blood alcohol levels ([1]; PO 5 g/kg EtOH, compound PO 40 mg/kg or 60 mg/kg): reduces blood alcohol levels
blood alcohol levels ([1]; PO 5 g/kg alcohol, compound 10 mg/kg IV): reduces blood alcohol levels
PD response (behavior observation) ([1]; PO EtOH, then PO 40 mg/kg or 60 mg/kg): significant PD response
